Data published in ChEMBL document CHEMBL1201862, “PubChem BioAssay data set” (2004).
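In this assay, cells in 96-well plates receive the compound at five concentrations for 48 hours. Endpoints are linearly interpolated between the surrounding concentrations. GI50 marks 50% less growth.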 The source made the active and inactive calls. No stated cut-off is given here; in the data, active = GI50 up to about 1.1 µM and inactive = higher.

Experiments:
Assay in all cases: NCI anticancer screen, dose series, 48 h
OVCAR-3 = test system: OVCAR-3
SK-OV-3 = test system: SK-OV-3
K562 = test system: K562
UO-31 = test system: UO-31
SK-MEL-2 = test system: SK-MEL-2
OVCAR-8 = test system: OVCAR-8
IGROV-1 = test system: IGROV-1
UACC-257 = test system: UACC-257
MOLT-4 = test system: MOLT-4
SW-620 = test system: SW-620
NCI-H226 = test system: NCI-H226
NCI-H23 = test system: NCI-H23
ACHN = test system: ACHN
SF-295 = test system: SF-295
Malme-3M = test system: Malme-3M
SK-MEL-5 = test system: SK-MEL-5
RXF 393 = test system: RXF 393
U-251 = test system: U-251
EKVX = test system: EKVX
TK-10 = test system: TK-10

Compound: CN1C(=O)CN2C(Cl)(Cl)C2(c2ccccc2)c2cc(Cl)ccc21 (stereo not given)
- GI50 (OVCAR-3): > 100 µM (inactive)
- GI50 (SK-OV-3): > 100 µM (inactive)
- GI50 (K562): 69.2 µM (inactive)
- GI50 (UO-31): > 100 µM (inactive)
- GI50 (SK-MEL-2): > 100 µM (inactive)
- GI50 (OVCAR-8): > 100 µM (inactive)
- GI50 (IGROV-1): > 100 µM (inactive)
- GI50 (UACC-257): 55.1 µM (inactive)
- GI50 (MOLT-4): 26.9 µM (inactive)
- GI50 (SW-620): > 100 µM (inactive)
- GI50 (NCI-H226): > 100 µM (inactive)
- GI50 (NCI-H23): 89.1 µM (inactive)
- GI50 (ACHN): > 100 µM (inactive)
- GI50 (SF-295): 27 µM (inactive)
- GI50 (Malme-3M): > 100 µM (inactive)
- GI50 (SK-MEL-5): > 100 µM (inactive)
- GI50 (RXF 393): > 100 µM (inactive)
- GI50 (U-251): > 100 µM (inactive)
- GI50 (EKVX): 65.8 µM (inactive)
- GI50 (TK-10): > 100 µM (inactive)

Compound: Cc1c(N2C(=O)CS(=O)(=O)C2c2cccc(Oc3ccccc3)c2)c(=O)n(-c2ccccc2)n1C (stereo not given)
- GI50 (OVCAR-3): 26.8 µM (inactive)
- GI50 (SK-OV-3): 61.8 µM (inactive)
- GI50 (K562): 24.3 µM (inactive)
- GI50 (UO-31): 62.7 µM (inactive)
- GI50 (SK-MEL-2): 72.9 µM (inactive)
- GI50 (OVCAR-8): 57.3 µM (inactive)
- GI50 (IGROV-1): 46.9 µM (inactive)
- GI50 (UACC-257): > 100 µM (inactive)
- GI50 (MOLT-4): 20.5 µM (inactive)
- GI50 (SW-620): > 100 µM (inactive)
- GI50 (NCI-H226): 42.6 µM (inactive)
- GI50 (NCI-H23): > 100 µM (inactive)
- GI50 (ACHN): > 100 µM (inactive)
- GI50 (SF-295): 84.9 µM (inactive)
- GI50 (Malme-3M): 0.512 µM (active)
- GI50 (SK-MEL-5): 35.6 µM (inactive)
- GI50 (RXF 393): 21.6 µM (inactive)
- GI50 (U-251): > 100 µM (inactive)
- GI50 (EKVX): 46.7 µM (inactive)
- GI50 (TK-10): 11.2 µM (inactive)

Compound: Clc1ccc(CCc2ccncn2)c(Cl)c1
- GI50 (OVCAR-3): 39.5 µM (inactive)
- GI50 (SK-OV-3): > 100 µM (inactive)
- GI50 (K562): 63.8 µM (inactive)
- GI50 (UO-31): 38.5 µM (inactive)
- GI50 (SK-MEL-2): > 100 µM (inactive)
- GI50 (OVCAR-8): 97.3 µM (inactive)
- GI50 (IGROV-1): > 100 µM (inactive)
- GI50 (UACC-257): 38.1 µM (inactive)
- GI50 (MOLT-4): 29.3 µM (inactive)
- GI50 (SW-620): > 100 µM (inactive)
- GI50 (NCI-H226): 60.5 µM (inactive)
- GI50 (NCI-H23): 49.3 µM (inactive)
- GI50 (ACHN): > 100 µM (inactive)
- GI50 (SF-295): 61.4 µM (inactive)
- GI50 (Malme-3M): 58.9 µM (inactive)
- GI50 (SK-MEL-5): 19.5 µM (inactive)
- GI50 (RXF 393): 27 µM (inactive)
- GI50 (U-251): 41.5 µM (inactive)
- GI50 (EKVX): 9.68 µM (inactive)
- GI50 (TK-10): > 100 µM (inactive)

Compound: S=c1sc2cscc2s1
- GI50 (OVCAR-3): 19.5 µM (inactive)
- GI50 (SK-OV-3): 27.5 µM (inactive)
- GI50 (K562): 42.6 µM (inactive)
- GI50 (UO-31): 19.1 µM (inactive)
- GI50 (SK-MEL-2): 38 µM (inactive)
- GI50 (OVCAR-8): 21.7 µM (inactive)
- GI50 (IGROV-1): 32.2 µM (inactive)
- GI50 (UACC-257): 22.3 µM (inactive)
- GI50 (MOLT-4): 34.4 µM (inactive)
- GI50 (SW-620): 20.7 µM (inactive)
- GI50 (NCI-H226): 15.5 µM (inactive)
- GI50 (NCI-H23): 28.8 µM (inactive)
- GI50 (ACHN): 19.4 µM (inactive)
- GI50 (SF-295): 54.1 µM (inactive)
- GI50 (Malme-3M): 12.6 µM (inactive)
- GI50 (SK-MEL-5): 27.9 µM (inactive)
- GI50 (RXF 393): 35.2 µM (inactive)
- GI50 (U-251): 53.2 µM (inactive)
- GI50 (EKVX): 19.5 µM (inactive)
- GI50 (TK-10): 23 µM (inactive)

Compound: CCCO[C@@H]1[C@@H](OC(C)=O)[C@@H](OC(C)=O)C(C)(C)/C=C/[C@H](C)C(=O)[C@@]2(OC(C)=O)C[C@@](C)(OC(C)=O)[C@H](OC(C)=O)[C@@H]2[C@H]2OC(=O)CC[C@@]12OC(=O)c1ccccc1
- GI50 (OVCAR-3): > 25 µM (inactive)
- GI50 (SK-OV-3): > 25 µM (inactive)
- GI50 (K562): 4.63 µM (inactive)
- GI50 (UO-31): > 25 µM (inactive)
- GI50 (SK-MEL-2): > 25 µM (inactive)
- GI50 (OVCAR-8): > 25 µM (inactive)
- GI50 (IGROV-1): > 25 µM (inactive)
- GI50 (UACC-257): > 25 µM (inactive)
- GI50 (MOLT-4): 5.13 µM (inactive)
- GI50 (SW-620): 23.6 µM (inactive)
- GI50 (NCI-H226): > 25 µM (inactive)
- GI50 (NCI-H23): > 25 µM (inactive)
- GI50 (ACHN): > 25 µM (inactive)
- GI50 (SF-295): 10.4 µM (inactive)
- GI50 (Malme-3M): 17.5 µM (inactive)
- GI50 (SK-MEL-5): 19.1 µM (inactive)
- GI50 (RXF 393): > 25 µM (inactive)
- GI50 (U-251): > 25 µM (inactive)
- GI50 (EKVX): > 25 µM (inactive)
- GI50 (TK-10): > 25 µM (inactive)
